Measurements reported in patent US20230026856A1, “HETEROCYCLIC COMPOUNDS AND METHODS OF USE THEREOF” (SPARCBIO LLC, priority 2020, published 2023).
pIC50: −log10 of the molar value.

Experiments:
MIA PaCa-2 = test: Cell proliferation assay panel (Cell Titer-Glo), MIA PaCa-2; type: cell-based; settings: Homo sapiens, MIA PaCa-2, 72 h
Procedure: Potency of compounds was determined in cell proliferation assays in a panel of cancer cell lines. Cells were seeded in 384-well plates (Corning, Cat. #3765) at specified densities in 40 μL of culture medium and incubated overnight at 37° C. in a 5% CO2 incubator (culture conditions). With a robotic dispenser, serially diluted test compounds were added in a volume of 20 nL DMSO to wells in the culture plate to achieve the final desired concentrations of test compounds, and the cells were further incubated in culture conditions for 72 hr. The assay was terminated by addition of 25 μL of Cell Titer-Glo reagent (Promega, Madison, Wis.) to each well. Contents were mixed, the plate was incubated for 10 min at room temperature and luminescence was measured. The IC50 value of each test compound was calculated with XLFit curve fitting software. Results are shown in Table 4. ‘+++’ indicates IC50 values ≤300 nM, ‘++’ indicates IC50 values between 300 nM-3 μM, and ‘+’ indicates IC50 values ≥3 μM.

KRAS G12C protein = KRAS G12C protein (Homo sapiens, UniProt P01116, G12C); test: Nucleotide exchange assay, Method III (TR-FRET, association of KRAS G12C with Raf-RBD, SOS1-mediated exchange); type: biochemical; settings: overnight (18 hr) incubation with GDP-bound KRAS G12C
Procedure: Method III. Inhibition of SOS1-mediated exchange of GDP for GTP on the KRAS G12C protein was measured in a biochemical assay that monitors association of KRAS G12C protein with the Ras-binding domain of Raf (Raf-RBD), where the association is coupled to exchange of GDP to GTP on the KRAS G12C protein. The assay was performed at WuXi AppTec (Shanghai, China). Compounds were serially diluted in 3-fold dilutions to 11 concentrations and spotted into the wells of an assay plate in a total volume of 150 nL DMSO per well. A 2× enzyme mix was prepared by diluting GDP-bound, His-tagged KRAS G12C to 25 nM in assay buffer. 10 μL/well of 2× enzyme mix was added to all wells, and the plate was sealed and incubated overnight (18 hr) at 23° C. 4×SOS1/GDP and 4×SOS1/GTP were prepared in assay buffer. 5 μL/well of 4×SOS1/GDP mix was added to negative control wells, 5 μL/well of 4×SOS1/GTP mix was added to the remaining wells, and the plate was further incubated at 23° C. for 1 hr. Finally, FLAG-tagged Raf-RBD is added to the reaction mixture along with a pair of FRET donor- and acceptor-conjugated antibodies specific for the FLAG-tagged Raf-RBD and His-tagged KRAS G12C proteins. A 4× Raf-RBD/Tb-anti-FLAG/D2-anti-His mix was prepared in assay buffer, and 5 μL/well of the mix was added to all wells, followed by incubation at room temperature for 2 hr. The TR-FRET signals, which increase with association of KRAS G12C and Raf-RBD, were measured on a Perkin Elmer Envision 2104 plate reader, and data were analyzed by non-linear regression to obtain IC50 values for inhibition by compounds. Table 2 includes results of the assay of Method III. ‘+++’ indicates IC50 values ≤300 nM, ‘++’ indicates IC50 values between 300 nM-3 μM, and ‘+’ indicates IC50 values ≥3 μM.

NCI-H358 cells = test: 3D cell proliferation assay (Cell Titer-Glo 3D); type: cell-based; settings: Homo sapiens, NCI-H358, 168 h, NCI-H358, 3D (ultra-low attachment); 7 days
Procedure: NCI-H358 cells (ATCC® CRL-5807™) were plated in a 384-well Black/Clear Round Bottom Ultra-Low Attachment Microplate (Corning) in medium (RPMI-1640+10% FBS) at a density of 1000 cells in 50 μL per well, then incubated overnight at 37° C. and 5% CO2. Cells were treated with test compounds at 9 concentrations within a specified concentration range (e.g., 0.5 nM-10 μM) for generation of dose response curves. Test compounds were prepared by 1:3 serial dilution in DMSO from a specified starting concentration (e.g., 20 μM, 2 μM or 0.2 μM) and then added to wells of the assay plate in a total volume of 150 nL DMSO. The cells were further incubated at 37° C. and 5% CO2 for 7 days. Cell viability was assessed by adding 40 μL of Cell Titer-Glo® 3D reagent (Cat. No.: G9683, Promega) to each well and reading luminescence after mixing and incubation of the samples. The IC50 value of each test compound was calculated with XLFit curve fitting software.

KRAS G12C protein, sequence (P01116 1-188 isoform P01116-2 G12C): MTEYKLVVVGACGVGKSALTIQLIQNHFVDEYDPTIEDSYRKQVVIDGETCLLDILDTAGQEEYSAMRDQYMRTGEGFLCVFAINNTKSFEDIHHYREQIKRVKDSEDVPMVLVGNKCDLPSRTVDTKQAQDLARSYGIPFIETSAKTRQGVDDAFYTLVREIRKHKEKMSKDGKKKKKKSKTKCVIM

| SMILES | pIC50 (MIA PaCa-2) | pIC50 (KRAS G12C protein) | pIC50 (NCI-H358 cells) |
| --- | --- | --- | --- |
| C=CC(=O)N1CCN(c2c(C(=O)NC)c(=O)n(-c3c(C)ccnc3C(C)C)c3nc(-c4cccc5sc(N)nc45)c(F)cc23)CC1 (single isomer, unassigned) [254 (Isomer A), 4-(4-acryloylpiperazin-1-yl)-7-(2-aminobenzo[d]thiazol-4-yl)-6-fluoro-1-(2-isopropyl-4-methylpyridin-3-yl)-N-methyl-2-oxo-1,2-dihydro-1,8-naphthyridine-3-carboxamide] | ≤ 5.52 | 5.52 to 6.52 |  |
| C=CC(=O)N1CCN(c2c(S(C)(=O)=O)c(=O)n(-c3c(C)ccnc3C(C)C)c3c(F)c(-c4c(O)cccc4F)c(Cl)cc23)CC1 (single isomer, unassigned) [176 (Isomer D), 4-(4-acryloylpiperazin-1-yl)-6-chloro-8-fluoro-7-(2-fluoro-6-hydroxyphenyl)-1-(2-isopropyl-4-methylpyridin-3-yl)-3-(methylsulfonyl)quinolin-2(1H)-one] |  | ≥ 6.52 | ≥ 7.00 |
| C=CC(=O)N1CCN(c2c(C(=O)NC)c(=O)n(-c3c(C)ccnc3C(C)C)c3nc(-c4c(O)cccc4F)c(F)cc23)CC1 (single isomer, unassigned) [84 (Isomer A), 4-(4-acryloylpiperazin-1-yl)-6-fluoro-7-(2-fluoro-6-hydroxyphenyl)-1-(2-isopropyl-4-methylpyridin-3-yl)-N-methyl-2-oxo-1,2-dihydro-1,8-naphthyridine-3-carboxamide] |  | ≥ 6.52 | 5.70 to 7.00 |
| C=CC(=O)N1CCN(c2c(S(C)(=O)=O)c(=O)n(-c3c(C)ccnc3C(C)C)c3c(F)c(-c4c(C)ccc5[nH]ncc45)c(Cl)cc23)CC1 (single isomer, unassigned) [187 (Isomer C), 4-(4-acryloylpiperazin-1-yl)-6-chloro-8-fluoro-1-(2-isopropyl-4-methylpyridin-3-yl)-7-(5-methyl-1H-indazol-4-yl)-3-(methylsulfonyl)quinolin-2(1H)-one] | 5.52 to 6.52 | ≥ 6.52 | ≥ 7.00 |
| C=CC(=O)N1CCN(c2c(S(C)(=O)=O)c(=O)n(-c3c(C)ccnc3C(C)C)c3nc(-c4cccc5sc(N)nc45)c(F)cc23)C[C@H]1C (single isomer, unassigned) [249 (Isomer A)] | 5.52 to 6.52 | ≥ 6.52 |  |
| C=CC(=O)N1CCN(c2c(C(=O)NC)c(=O)n(-c3c(C)ccnc3C(C)C)c3nc(-c4c(O)cccc4F)c(F)cc23)[C@@H](C)C1 (single isomer, unassigned) [76 (Isomer A)] |  | 5.52 to 6.52 | 5.70 to 7.00 |
| C=CC(=O)N1CCN(c2c(S(C)(=O)=O)c(=O)n(-c3c(C)ccnc3C(C)C)c3c(F)c(-c4cccc5sc(N)nc45)c(Cl)cc23)CC1 (single isomer, unassigned) [252 (Isomer D), 4-(4-acryloylpiperazin-1-yl)-7-(2-aminobenzo[d]thiazol-4-yl)-6-chloro-8-fluoro-1-(2-isopropyl-4-methylpyridin-3-yl)-3-(methylsulfonyl)quinolin-2(1H)-one] |  | ≥ 6.52 | ≥ 7.00 |
| C=CC(=O)N1CCN(c2c(C(=O)NC)c(=O)n(-c3c(C)ccnc3C(C)C)c3nc(-c4c(O)cccc4F)c(F)cc23)C[C@@H]1CC#N (single isomer, unassigned) [80 (Isomer A)] |  | ≥ 6.52 | 5.70 to 7.00 |
| C=CC(=O)N1CCN(c2c(C(=O)NC)c(=O)n(-c3c(C)ccnc3C(C)C)c3nc(-c4c(O)cccc4F)c(F)cc23)C[C@H]1C (single isomer, unassigned) [82 (Isomer A)] |  | ≥ 6.52 | 5.70 to 7.00 |
| C=CC(=O)N1CCN(c2c(C(=O)NC)c(=O)n(-c3c(C)ccnc3C(C)C)c3nc(-c4c(C)ccc5[nH]ncc45)c(F)cc23)CC1 (single isomer, unassigned) [116 (Isomer A), 4-(4-acryloylpiperazin-1-yl)-6-fluoro-1-(2-isopropyl-4-methylpyridin-3-yl)-N-methyl-7-(5-methyl-1H-indazol-4-yl)-2-oxo-1,2-dihydro-1,8-naphthyridine-3-carboxamide] | ≤ 5.52 | ≥ 6.52 |  |
| C=CC(=O)N1CCN(c2c(S(C)(=O)=O)c(=O)n(-c3c(C)ccnc3C(C)C)c3c(F)c(-c4cccc5sc(N)nc45)c(Cl)cc23)CC1 (single isomer, unassigned) [252 (Isomer C), 4-(4-acryloylpiperazin-1-yl)-7-(2-aminobenzo[d]thiazol-4-yl)-6-chloro-8-fluoro-1-(2-isopropyl-4-methylpyridin-3-yl)-3-(methylsulfonyl)quinolin-2(1H)-one] |  | 5.52 to 6.52 |  |
| C=CC(=O)N1CCC(n2c(=O)c(=O)n(-c3c(C)ccnc3C(C)C)c3nc(-c4c(O)cccc4F)c(F)cc32)C(C)C1 (single isomer, unassigned) [294 (Isomer F), 1-(1-acryloyl-3-methylpiperidin-4-yl)-7-fluoro-6-(2-fluoro-6-hydroxyphenyl)-4-(2-isopropyl-4-methylpyridin-3-yl)-1,4-dihydropyrido[2,3-b]pyrazine-2,3-dione] |  | 5.52 to 6.52 |  |
| C=CC(=O)N1CCC(n2c(=O)c(=O)n(-c3c(C)ccnc3C(C)C)c3nc(-c4c(O)cccc4F)c(F)cc32)C(C)C1 (single isomer, unassigned) [294 (Isomer E), 1-(1-acryloyl-3-methylpiperidin-4-yl)-7-fluoro-6-(2-fluoro-6-hydroxyphenyl)-4-(2-isopropyl-4-methylpyridin-3-yl)-1,4-dihydropyrido[2,3-b]pyrazine-2,3-dione] |  | ≤ 5.52 |  |
| C=CC(=O)N1CCN(c2c(S(C)(=O)=O)c(=O)n(-c3c(C)ccnc3C(C)C)c3nc(-c4c(O)cccc4F)c(F)cc23)[C@@H](C)C1 (single isomer, unassigned) [131 (Isomer B)] |  | ≤ 5.52 |  |
| C=CC(=O)N1CCN(c2c(S(C)(=O)=O)c(=O)n(-c3c(C)ccnc3C(C)C)c3nc(-c4cccc5sc(N)nc45)c(F)cc23)CC1 (single isomer, unassigned) [250 (Isomer B), 4-(4-acryloylpiperazin-1-yl)-7-(2-aminobenzo[d]thiazol-4-yl)-6-fluoro-1-(2-isopropyl-4-methylpyridin-3-yl)-3-(methylsulfonyl)-1,8-naphthyridin-2(1H)-one] |  | 5.52 to 6.52 |  |
| C=CC(=O)N1CCN(c2c(S(C)(=O)=O)c(=O)n(-c3c(C)ccnc3C(C)C)c3nc(-c4c(O)cccc4F)c(F)cc23)[C@@H](C)C1 (single isomer, unassigned) [131 (Isomer A)] |  | 5.52 to 6.52 | 5.70 to 7.00 |
| C=CC(=O)N1CCN(c2c(S(C)(=O)=O)c(=O)n(-c3c(C)ccnc3C(C)C)c3nc(-c4c(O)cccc4F)c(F)cc23)C[C@@H]1CC#N (single isomer, unassigned) [135 (Isomer A)] |  | ≤ 5.52 |  |
| C=CC(=O)N1CCN(c2c(S(C)(=O)=O)c(=O)n(-c3c(C)ccnc3C(C)C)c3c(F)c(-c4c(O)cccc4F)c(Cl)cc23)CC1 (single isomer, unassigned) [176 (Isomer A), 4-(4-acryloylpiperazin-1-yl)-6-chloro-8-fluoro-7-(2-fluoro-6-hydroxyphenyl)-1-(2-isopropyl-4-methylpyridin-3-yl)-3-(methylsulfonyl)quinolin-2(1H)-one] |  | ≤ 5.52 |  |
| C=CC(=O)N1CCN(c2c(S(C)(=O)=O)c(=O)n(-c3c(C)ccnc3C(C)C)c3nc(-c4c(O)cccc4F)c(F)cc23)C[C@@H]1CC#N (single isomer, unassigned) [135 (Isomer B)] |  | 5.52 to 6.52 | 5.70 to 7.00 |
